Paper PMC10005332, “It Takes Two to Tango, Part II: Synthesis of A-Ring Functionalised Quinones Containing Two Redox-Active Centres with Antitumour Activities” (Molecules, 2023)
Where two headings read alike, the source gives them in different places.

Tests used:
[1] = tested on: A549 (human lung carcinoma); assay: MTT cytotoxicity assay, A549; format: cell-based; conditions: for IC50: Homo sapiens, A549, MTT, 72 h exposure, three independent experiments, read-out: Cytotoxic activity IC50 (95% CI) A549; for Selectivity index A549: ratio of cytotoxicity L929 / A549
Method: (§1) In this study, the IC50 was obtained in micromolar concentrations, using the colourimetric MTT (3-(4,5-dimethylthiazol-2-yl)-2,5-diphenyl tetrazolium bromide)) assay, and doxorubicin was used as the positive control. […] The activity against the non-tumoural murine fibroblast cell line L929 was also evaluated in order to study the cytotoxicity behaviour of each compound and to understand their respective relative selectivity. The selectivity index was obtained using the ratio of measured cytotoxicity between the L929 cell line and each of the cancer cell lines, and the results are presented in Table 2.
(§2) The in vitro cytotoxicity activity of the compounds was evaluated by the colorimetric MTT (3-(4,5-dimethylthiazol-2-yl)-2,5-diphenyl tetrazolium bromide)) assay using the following tumor cell lines: HCT-116 (colon carcinoma), PC3 (prostate), SNB-19 (glioblastoma), K-562 (myelogenous leukaemia), HL-60 (human promyelocytic leukaemia), B16 (murine melanoma), A549 (human lung carcinoma), KG1 (human acute myeloid leukaemia), and RAJI (human Burkitt’s lymphoma), which were provided by the National Cancer Institute (Bethesda, MD, USA). The L929 cell line (mouse fibroblast L cells NCTC clone 929) employed in this study as a control cell line was obtained from the American Type Culture Collection (Manassas, VA, USA). The cell lines (Table S4) were maintained in flasks containing RPMI 1640 or DMEM medium supplemented with 10% bovive fetal sérum, 100 U/mL penicillin, and 100 μg/mL streptomycin at 37 °C and in 5% CO2 atmosphere. The compounds tested were dissolved in DMSO. Doxorubicin served as the positive control. Cell treatments were performed with three replicates and the cells were mycoplasma free. After 72 h incubation, 100 μL of MTT solution (0.5 mg/mL) was added to each well, and the cells were incubated for 3 h. The supernatant was removed and 100 μL of DMSO was added and the absorbance at 595 nm was measured using Victor Nivo Multimode plate reader (PerkinElmer, Waltham, MA, USA). The absorbances obtained were used to calculate the IC50 values by nonlinear regression employing appropriate statistical software.
(§3) The in vitro cytotoxicity activity of compounds was evaluated by the colorimetric MTT (3-(4,5-dimethylthiazol-2-yl)-2,5-diphenyl tetrazolium bromide)) assay using tumor cell lines: HCT-116 (colon carcinoma), PC3 (prostate), SNB-19 (glioblastoma), K-562 (myelogenous leukaemia), HL-60 (human promyelocytic leukaemia), B16 (murine melanoma), A549 (human lung carcinoma), KG1 (human acute myeloid leukaemia) and RAJI (human Burkitt's lymphoma), which were provided by the National Cancer Institute (Bethesda, MD, USA). The L929 cell line (mouse fibroblast L cells NCTC clone 929) employed in this study as a control cell line was obtained from the American Type Culture […]
(§4) Collection (Manassas, VA, USA). Cell lines (Table 01) were maintained in flasks containing RPMI 1640 or DMEM medium supplemented with 10% bovive fetal sérum, 100 U/mL penicillin, and 100 μg/mL streptomycin at 37 °C and 5% CO2 atmosphere.
(§5) Compounds tested were dissolved in DMSO. Doxorubicin served as positive control. Cell treatments were performed with three replicates and cells were mycoplasma-free. After 72 h incubation, 100 μL of MTT solution (0.5 mg/mL) was added to each well, and cells were incubated for 3 h. The supernatant was removed and 100 μL of DMSO was added and the absorbance at 595 nm was measured using Victor Nivo Multimode plate reader

[2] = MTT cytotoxicity assay, L929 control line; format: cell-based, mouse; conditions: mouse, L929 fibroblast cells (non-tumoral control line), 72 h exposure, read-out: Cytotoxic activity IC50 (95% CI) L929
Method: as §1, §2, §3, §4, §5

[3] = tested on: L929 cells (non-tumoral mouse fibroblast); assay: MTT cytotoxicity assay, L929 control line; format: cell-based; conditions: 72 h exposure, read-out: Cytotoxic activity IC50 (95% CI) L929
Method: as §1, §2, §3, §4, §5

B16 (murine melanoma) = assay: MTT cytotoxicity assay, B16; format: cell-based; conditions: for IC50: Mus musculus, MTT, 72 h exposure, three independent experiments, read-out: Cytotoxic activity IC50 (95% CI) B16; for Selectivity index B16: ratio of cytotoxicity L929 / B16
Method: as §1, §2, §3, §4, §5

[4] = tested on: HL60 (human pro-myelocytic leukaemia); assay: MTT cytotoxicity assay, HL60; format: cell-based; conditions: for IC50: MTT, 72 h exposure, three independent experiments, read-out: Cytotoxic activity IC50 (95% CI) HL60; for Selectivity index HL60: ratio of cytotoxicity L929 / HL60
Method: as §1, §2, §3, §4, §5

[5] = tested on: KG1 (human acute myeloid leukaemia); assay: MTT cytotoxicity assay, KG1; format: cell-based; conditions: for IC50: Homo sapiens, MTT, 72 h exposure, three independent experiments, read-out: Cytotoxic activity IC50 (95% CI) KG1; for Selectivity index KG1: ratio of cytotoxicity L929 / KG1
Method: as §1, §2, §3, §4, §5

[6] = tested on: PC3 (human prostate adenocarcinoma); assay: MTT cytotoxicity assay, PC3; format: cell-based; conditions: for IC50: Homo sapiens; for Selectivity index PC3: ratio of cytotoxicity L929 / PC3
Method: as §1, §2, §3, §4, §5

[7] = tested on: K-562 (human chronic myeloid leukaemia); assay: MTT cytotoxicity assay, K-562; format: cell-based; conditions: for IC50: Homo sapiens, K562, MTT, 72 h exposure, three independent experiments, read-out: Cytotoxic activity IC50 (95% CI) K-562; for Selectivity index K-562: ratio of cytotoxicity L929 / K-562
Method: as §1, §2, §3, §4, §5

[8] = tested on: RAJI (human Burkitt’s lymphoma); assay: MTT cytotoxicity assay, RAJI; format: cell-based; conditions: for IC50: Homo sapiens, Raji, 72 h, MTT, 72 h exposure, three independent experiments, read-out: Cytotoxic activity IC50 (95% CI) RAJI; for Selectivity index RAJI: ratio of cytotoxicity L929 / RAJI
Method: as §1, §2, §3, §4, §5

[9] = tested on: SNB-19 (human astrocytoma); assay: MTT cytotoxicity assay, SNB-19; format: cell-based; conditions: for IC50: Homo sapiens, SNB-19, MTT, 72 h exposure, three independent experiments, read-out: Cytotoxic activity IC50 (95% CI) SNB-19; for Selectivity index SNB-19: ratio of cytotoxicity L929 / SNB-19
Method: as §1, §2, §3, §4, §5

[10] = tested on: HCT-116 (human colorectal carcinoma); assay: MTT cytotoxicity assay, HCT-116; format: cell-based; conditions: for IC50: Homo sapiens, HCT-116, 72 h, MTT, 72 h exposure, three independent experiments, read-out: Cytotoxic activity IC50 (95% CI) HCT-116; for Selectivity index HCT-116: ratio of cytotoxicity L929 / HCT-116
Method: as §1, §2, §3, §4, §5

[11] = MTT, 72 h exposure, three independent experiments, read-out: Cytotoxic activity IC50 (95% CI) PC3

C#CCNC1=CC(=O)c2c(O)cccc2C1=O [Compound 18b, 5-hydroxy-2-(prop-2-yn-1-ylamino)naphthalene-1,4-dione]
IC50 [1]: 15 µM
Selectivity index A549 [1]: 1.6
IC50 at 72 h [2]: 24 µM
IC50 [3]: 23.9 µM
IC50 (B16 (murine melanoma)): 8.65 µM
Selectivity index B16 (B16 (murine melanoma)): 2.8
IC50 ([4]; Homo sapiens, HL-60, 72 h): > 100 µM
Selectivity index HL60 [4]: 0.2
IC50 [5]: > 100 µM
Selectivity index KG1 [5]: 0.2
IC50 [6, 11]: > 100 µM
Selectivity index PC3 [6]: 0.2
IC50 [7]: 25 µM
Selectivity index K-562 [7]: 1.0
IC50 [8]: 23.2 µM
Selectivity index RAJI [8]: 1.0
IC50 [9]: 15 µM
Selectivity index SNB-19 [9]: 1.6

CC1(C)OC2=C(C(=O)C(=O)c3ccccc32)C1n1cc(CNC2=CC(=O)c3cc4ccccc4cc3C2=O)nn1 (stereo not shown) [Compound 19e, 3-(4-(((1,4-dioxo-1,4-dihydroanthracen-2-yl)amino)methyl)-1H-1,2,3-triazol-1-yl)-2,2-dimethyl-2,3-dihydronaphtho[1,2-b]furan-4,5-dione]
IC50 [1]: 6.14 µM
Selectivity index A549 [1]: 0.8
IC50 at 72 h [2]: 4.83 µM
IC50 (B16 (murine melanoma)): 3.97 µM
Selectivity index B16 (B16 (murine melanoma)): 1.2
IC50 ([4]; Homo sapiens, HL-60, 72 h): 0.86 µM
Selectivity index HL60 [4]: 5.6
IC50 [5]: 4.77 µM
Selectivity index KG1 [5]: 1.0
IC50 [6, 11]: 3.48 µM
Selectivity index PC3 [6]: 1.4
IC50 [7]: 8.13 µM
Selectivity index K-562 [7]: 0.6
IC50 [10]: 2.63 µM
Selectivity index HCT-116 [10]: 1.8
IC50 [8]: 1.69 µM
Selectivity index RAJI [8]: 2.9
IC50 [9]: 3.52 µM
Selectivity index SNB-19 [9]: 1.4

C#CCNC1=CC(=O)c2cc3ccccc3cc2C1=O [Compound 18e, 2-(prop-2-yn-1-ylamino)anthracene-1,4-dione]
IC50 [1]: > 100 µM
IC50 at 72 h [2]: > 100 µM
IC50 (B16 (murine melanoma)): > 100 µM
IC50 ([4]; Homo sapiens, HL-60, 72 h): > 100 µM
IC50 [5]: > 100 µM
IC50 [6, 11]: > 100 µM
IC50 [7]: > 100 µM
IC50 [10]: > 100 µM
IC50 [8]: > 100 µM
IC50 [9]: > 100 µM

[N-]=[N+]=NCC1CC2=C(O1)c1ccccc1C(=O)C2=O (stereo not shown) [Compound 7, 2-(azidomethyl)-2,3-dihydronaphtho[1,2-b]furan-4,5-dione]
IC50 [1]: 2.63 µM
Selectivity index A549 [1]: 1.3
IC50 at 72 h [2]: 3.46 µM
IC50 (B16 (murine melanoma)): 1.99 µM
Selectivity index B16 (B16 (murine melanoma)): 1.7
IC50 ([4]; Homo sapiens, HL-60, 72 h): 0.59 µM
Selectivity index HL60 [4]: 5.9
IC50 [5]: 3.67 µM
Selectivity index KG1 [5]: 0.9
IC50 ([6]; 72 h, read-out: Bioactivity class according to IC50, PC3): 2 to 10 µM
IC50 [6, 11]: 2.25 µM
Selectivity index PC3 [6]: 1.5
IC50 [7]: 0.98 µM
Selectivity index K-562 [7]: 3.5
IC50 [10]: 1.8 µM
Selectivity index HCT-116 [10]: 1.9
IC50 [8]: 0.53 µM
Selectivity index RAJI [8]: 6.5
IC50 [9]: 1.43 µM
Selectivity index SNB-19 [9]: 2.4

CC1(C)OC2=C(C(=O)C(=O)c3ccccc32)C1n1cc(CNC2=CC(=O)c3cccc(OCc4ccccc4)c3C2=O)nn1 (stereo not shown) [Compound 19d, 3-(4-(((8-benzyloxy-1,4-dioxo-1,4-dihydronaphthalen-2-yl)amino)methyl)-1H-1,2,3-triazol-1-yl)-2,2-dimethyl-2,3-dihydronaphtho[1,2-b]furan-4,5-dione]
IC50 [1]: 1.11 µM
Selectivity index A549 [1]: 2.1
IC50 at 72 h [2]: 2.29 µM
IC50 (B16 (murine melanoma)): 0.93 µM
Selectivity index B16 (B16 (murine melanoma)): 2.5
IC50 ([4]; Homo sapiens, HL-60, 72 h): 0.3 µM
IC50 [4]: 0.34 µM
Selectivity index HL60 [4]: 6.7
IC50 [5]: 2.94 µM
Selectivity index KG1 [5]: 0.8
IC50 [6, 11]: 1.23 µM
Selectivity index PC3 [6]: 1.9
IC50 [7]: 1.04 µM
Selectivity index K-562 [7]: 2.2
IC50 [10]: 0.53 µM
Selectivity index HCT-116 [10]: 4.3
IC50 [8]: 1.26 µM
Selectivity index RAJI [8]: 1.8
IC50 [9]: 0.76 µM
Selectivity index SNB-19 [9]: 3.0

C#CCNC1=CC(=O)c2cccc(OC)c2C1=O [Compound 18c, 8-methoxy-2-(prop-2-yn-1-ylamino)naphthalene-1,4-dione]
IC50 [1]: > 100 µM
IC50 at 72 h [2]: > 100 µM
IC50 (B16 (murine melanoma)): 43.8 µM
Selectivity index B16 (B16 (murine melanoma)): 2.3
IC50 ([4]; Homo sapiens, HL-60, 72 h): > 100 µM
IC50 [5]: > 100 µM
IC50 [6, 11]: > 100 µM
IC50 [7]: > 100 µM
IC50 [10]: > 100 µM
IC50 [8]: 39.3 µM
Selectivity index RAJI [8]: 2.5
IC50 [9]: > 100 µM

O=C1C(=O)c2ccccc2C2=C1CC(Cn1cc(CNC3=CC(=O)c4cccc(OCc5ccccc5)c4C3=O)nn1)O2 (stereo not shown) [Compound 20d, 2-((4-(((8-benzyloxy-1,4-dioxo-1,4-dihydronaphthalen-2-yl)amino)methyl)-1H-1,2,3-triazol-1-yl)methyl)-2,3-dihydronaphtho[1,2-b]furan-4,5-dione]
IC50 [1]: 27.4 µM
Selectivity index A549 [1]: 0.3
IC50 at 72 h [2]: 9.43 µM
IC50 (B16 (murine melanoma)): 9.21 µM
Selectivity index B16 (B16 (murine melanoma)): 1.0
IC50 ([4]; Homo sapiens, HL-60, 72 h): 3.74 µM
Selectivity index HL60 [4]: 2.5
IC50 [5]: 8.9 µM
Selectivity index KG1 [5]: 1.1
IC50 [6, 11]: 12.8 µM
Selectivity index PC3 [6]: 0.7
IC50 [7]: 10.4 µM
Selectivity index K-562 [7]: 0.9
IC50 [10]: 6.16 µM
Selectivity index HCT-116 [10]: 1.5
IC50 [8]: 4.32 µM
Selectivity index RAJI [8]: 2.2
IC50 [9]: 10.2 µM
Selectivity index SNB-19 [9]: 0.9

C#CCNC1=CC(=O)c2c(I)cccc2C1=O [Compound 18a, 5-iodo-2-(prop-2-yn-1-ylamino)naphthalene-1,4-dione]
IC50 [1]: > 100 µM
IC50 at 72 h [2]: > 100 µM
IC50 (B16 (murine melanoma)): 48.5 µM
Selectivity index B16 (B16 (murine melanoma)): 2.1
IC50 ([4]; Homo sapiens, HL-60, 72 h): 38.3 µM
Selectivity index HL60 [4]: 2.6
IC50 [5]: > 100 µM
IC50 [6, 11]: > 100 µM
IC50 [7]: > 100 µM
IC50 [10]: > 100 µM
IC50 [8]: > 100 µM
IC50 [9]: > 100 µM
